Where “and” joins values, the source holds several entries; their conditions need not be identical. Identical values can stand only once.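 Compound exposure: 48 hours, 5 concentrations, 96-well plates. The concentration for 50% growth inhibition is given as GI50. At the TGI there is no net growth.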
Key:
Test in all cases: NCI-60 cell line screen, 48 h
[1] = tested on: 786-0 renal
[2] = tested on: A498 renal
[3] = tested on: A549 NSCLC
[4] = tested on: ACHN renal
[5] = tested on: CAKI-1 renal
[6] = tested on: CCRF-CEM leukemia
[7] = tested on: COLO 205 colon
[8] = tested on: DMS 114 small cell lung
[9] = tested on: DMS 273 small cell lung
[10] = tested on: DU-145 prostate
[11] = tested on: EKVX NSCLC
[12] = tested on: HCC-2998 colon
[13] = tested on: HCT-116 colon
[14] = tested on: HCT-15 colon
[15] = tested on: HL-60(TB) leukemia
[16] = tested on: HOP-62 NSCLC
[17] = tested on: HOP-92 NSCLC
[18] = tested on: HS 578T breast
[19] = tested on: HT29 colon
[20] = tested on: IGROV1 ovarian
[21] = tested on: K-562 leukemia
[22] = tested on: KM12 colon
[23] = tested on: LOX IMVI melanoma
[24] = tested on: LXFL 529 NSCLC
[25] = tested on: M14 melanoma
[26] = tested on: MALME-3M melanoma
[27] = tested on: MDA-MB-231 breast
[28] = tested on: MDA-MB-435
[29] = tested on: MDA-N
[30] = tested on: MOLT-4 leukemia
[31] = tested on: NCI-H226 lung
[32] = tested on: NCI-H23 lung
[33] = tested on: NCI-H460 lung
[34] = tested on: NCI-H522 lung
[35] = tested on: NCI/ADR-RES ovarian
[36] = tested on: OVCAR-3 ovarian
[37] = tested on: OVCAR-4 ovarian
[38] = tested on: OVCAR-5 ovarian
[39] = tested on: OVCAR-8 ovarian
[40] = tested on: PC-3 prostate
[41] = tested on: RPMI-8226 leukemia
[42] = tested on: RXF 393 renal
[43] = tested on: SF-268 CNS
[44] = tested on: SF-295 CNS
[45] = tested on: SF-539 CNS
[46] = tested on: SK-MEL-2 melanoma
[47] = tested on: SK-MEL-28 melanoma
[48] = tested on: SK-MEL-5 melanoma
[49] = tested on: SK-OV-3 ovarian
[50] = tested on: SN12C renal
[51] = tested on: SNB-19 CNS
[52] = tested on: SNB-75 CNS
[53] = tested on: SNB-78 CNS
[54] = tested on: SR leukemia
[55] = tested on: SW-620 colon
[56] = tested on: T-47D breast
[57] = tested on: TK-10 renal
[58] = tested on: U251 CNS
[59] = tested on: UACC-257 melanoma
[60] = tested on: UACC-62 melanoma
[61] = tested on: UO-31 renal

## CC(=O)NC1C(OCc2ccccc2)OC(CO)C(O)C1OC(C)C(=O)NC(C)C(=O)N[C@@H](CCC(=O)OCCCNC1c2ccccc2Nc2cccc([N+](=O)[O-])c21)C(N)=O (stereo partly specified)
[1]
  GI50: 6.74 nM
  TGI: 30.6 nM
[2]
  TGI: 20 nM
[3]
  GI50: 30.6 nM
[4]
  TGI: 46.5 nM and < 40.7 nM
[5]
  GI50: 28 nM
  TGI: 102 nM and 16.3 nM
[6]
  GI50: 44.4 nM and 24.9 nM
  TGI: 422 nM and 1200 nM
[7]
  GI50: 13.4 nM
  TGI: 27.4 nM
[8]
  TGI: 21.5 nM
[9]
  TGI: < 10.6 nM
[10]
  TGI: 79.9 nM
[11]
  TGI: 33.4 nM and 35.6 nM
[12]
  GI50: 16.4 nM
  TGI: 32.2 nM
[13]
  GI50: 3.01 nM
  TGI: 24.2 nM and < 11.6 nM
[14]
  TGI: 24.5 nM
[15]
  GI50: 21.1 nM
  TGI: 125 nM and 39.8 nM
[16]
  GI50: 23.4 nM
[17]
  GI50: 15.9 nM
  TGI: 43.4 nM and 27 nM
[18]
  TGI: 72.5 nM
[19]
  GI50: 5.83 nM
  TGI: 29.5 nM and 10.2 nM
[20]
  GI50: 51.4 nM
  TGI: 267 nM and 86.1 nM
[21]
  TGI: 14.1 nM
[22]
  GI50: 21.1 nM
  TGI: 51.6 nM and < 10.7 nM
[23]
  GI50: 181 nM
  TGI: 441 nM and 103 nM
[24]
  TGI: < 23.2 nM
[25]
  GI50: 20.1 nM
  TGI: 48.5 nM
[26]
  GI50: 15.7 nM
  TGI: 32.4 nM
[27]
  TGI: 74 nM
[28]
  TGI: 30.9 nM
[29]
  TGI: 31.7 nM
[30]
  GI50: 40.6 nM
  TGI: 425 nM and 48.6 nM
[31]
  GI50: 14.7 nM
  TGI: 45.5 nM and < 15.1 nM
[32]
  TGI: 29.5 nM
[33]
  GI50: 1.38 nM
  TGI: 14 nM and 13 nM
[34]
  GI50: 13.8 nM
  TGI: 40.5 nM and < 15.1 nM
[35]
  TGI: 54.5 nM
[36]
  GI50: 27.2 nM
  TGI: 94.5 nM and 10.2 nM
[37]
  GI50: 31.4 nM
  TGI: 140 nM and < 18 nM
[38]
  GI50: 10.5 nM
  TGI: 73.7 nM and 48.8 nM
[39]
  GI50: 20 nM
  TGI: 76.5 nM and 34.7 nM
[40]
  TGI: 141 nM
[41]
  TGI: < 17.4 nM
[42]
  TGI: 32 nM
[43]
  GI50: 19.5 nM
  TGI: 63.9 nM and 51.2 nM
[44]
  GI50: 67.7 nM
  TGI: 433 nM and 59.6 nM
[45]
  GI50: 29.7 nM
  TGI: 110 nM and 16.7 nM
[46]
  GI50: 22.1 nM
  TGI: 53.2 nM
[47]
  GI50: 27 nM
  TGI: 64.3 nM and 15.5 nM
[48]
  GI50: 20 nM
  TGI: 53.8 nM and 15.2 nM
[49]
  GI50: 147 nM
  TGI: 644 nM and 96.5 nM
[50]
  GI50: 17.8 nM
  TGI: 97.5 nM and < 12.2 nM
[51]
  GI50: 30.3 nM
  TGI: 211 nM and 58.4 nM
[52]
  GI50: 28.4 nM
  TGI: 145 nM and 48 nM
[53]
  TGI: 40.7 nM
[54]
  GI50: 0.3 nM
  TGI: 9.48 nM and 22.1 nM
[55]
  GI50: 1.35 nM
  TGI: 17 nM and 55.7 nM
[56]
  TGI: 669 nM
[57]
  TGI: 30.1 nM
[58]
  GI50: 13.8 nM
  TGI: 49.7 nM and 15.9 nM
[59]
  TGI: 15.9 nM
[60]
  TGI: < 11.2 nM
[61]
  TGI: 38.4 nM
